The target in test [1] is T1, vasopressin V1 receptor (rat liver plasma membranes) (Rattus norvegicus, UniProt P30560).
T1 construct: Rat liver plasma membranes expressing the vasopressin V1 receptor subtypes; from tissue; host or cells: rat liver plasma membranes
The test is described as follows: Binding Assay to Rat Hepatic V1 Receptors. The protocol: Binding Assay to Rat Hepatic V1 Receptors
Rat liver plasma membranes expressing the vasopressin V1 receptor subtypes are isolated by sucrose density gradient according to the method described by Lesko et al., (1973). These membranes are quickly suspended in 50.0 mM Tris.HCl buffer, pH 7.4, containing 0.2% bovine serum albumin (BSA) and 0.1 mM phenylmethylsulfonylfluoride (PMSF) and kept frozen at -70° C. until used in subsequent binding experiments. For binding experiments, the following is added to the wells of a ninety-six well format microtiter plate: […] of […] buffer containing 10.0 mM MgCl2, 0.2% heat inactivated BSA and a mixture of protease inhibitors: leupeptin, 1.0 mg %; aprotinin, 1.0 mg %; 1,10-phenanthroline,2.0 mg %; trypsin inhibitor, 10.0 mg % and 0.1 mM PMSF, 20.0 ml of [phenylalanyl-3,4,5, -^3 H] vasopressin (S.A. 45.1 Ci/mmole) […], and the reaction initiated by the addition of 80 ml of tissue membranes containing 20 mg of tissue protein. The plates are kept undisturbed on the bench top at room temperature for 120 min. to reach equilibrium. Non-specific samples are assayed in the presence of 0.1 mM of the unlabeled […] phenylalanylvasopressin, added in 20.0 ml volume.
For test compounds, these are solubilized in 50% dimethylsulfoxide (DMSO) and added in 20.0 ml volume to a final incubation volume of […]. Upon completion of binding, the content of each well is filtered off, using a Brandel® cell Harvester (Gaithersburg, Md.). The radioactivity trapped on the filter disk by the ligand-receptor complex is assessed by liquid scintillation counting in a Packard LS Counter, with an efficiency of 65% for tritium.

Test [2] has as its target T2, vasopressin V2 receptor (rat kidney medullary) (Rattus norvegicus, UniProt Q00788).
T2 construct: Medullary tissues from rat kidneys are dissected out; from tissue; host or cells: rat kidney medulla membranes
The test is described as follows: Binding Assay to Rat Kidney Medullary V2 Receptors. The protocol:
Binding Assay to Rat Kidney Medullary V2 Receptors
Medullary tissues from rat kidneys are dissected out, cut into small pieces and soaked in a […] sodium chloride solution containing 1.0 mM EDTA with many changes of the liquid phase, until the solution is clear of blood. […] The tissue is homogenized in a 0.25M sucrose solution containing 1.0 mM EDTA and 0.1 mM PMSF using a Potter-Elvehjem homogenizer with a teflon pestle. The homogenate is filtered through several layers (4 layers) of cheese cloth. The filtrate is rehomogenized using a dounce homogenizer, with a tight fitting pestle. The final homogenate is centrifuged at 1500×g for 15 min. The nuclear pellet is discarded and the supernatant fluid recentrifuged at 40,000×g for 30 min. The resulting pellet formed contains a dark inner part with the exterior, slightly pink. The pink outer part is suspended in a small amount of 50.0 mM Tris.HCl buffer, pH 7.4. The protein content is determined by the Lowry's method (Lowry et al., J. Biol. Chem., 1953). The membrane suspension is stored at -70° C., in 50.0 mM Tris.HCl, containing 0.2% inactivated BSA and 0.1 mM PMSF in aliquots of 1.0 ml containing 10.0 mg protein per ml of suspension until sue in subsequent binding experiments.
For binding experiments, the following is added in ml volume to wells of a 96 well format of a microtiter plate: 100.0 ml of 100.0 mM Tris.HCl buffer containing 0.2% heat inactivated BSA, 10.0 mM MgCL2 and a mixture of protease inhibitors: leupeptin, 1.0 mg %; aprotinin, 1.0 mg % 1,10-phenanthroline, 2.0 mg %; trypsin inhibitor, and 0.1 mM PMSF, 20.0 ml of [^3 H] Arginine^8, vasopressin (S.A. 75.0 Ci/mmole) at 0.8 nM and the reaction initiated by the addition of 80.0 ml of tissue membranes (200.0 mg tissue protein). The plates are left undisturbed on the bench top for 120 minutes to reach equilibrium. Non-specific binding is assessed in the presence of 1.0 mM of unlabeled ligand, added in 20 ml volume. For test compounds, these are solubilized in 50% dimethylsulfoxide (DMSO) and added in 20.0 ml volume to a final incubation volume of […]. Upon completion of binding, the content of each well is filtered off, using a Brandel® cell Harvester (Gaithersburg, Md.). The radioactivity trapped on the filter disk by the ligand-receptor complex is assessed by liquid scintillation counting in a Parkard LS Counter, with an efficiency of 65% for tritium.

The target in test [3] is T3, oxytocin receptor (rat uteri) (Rattus norvegicus, UniProt P70536).
T3 construct: The uteri are dissected out, cleaned of fat and connective tissues; from tissue; host or cells: uteri of diethylstilbestrol-treated female Sprague-Dawley rats
T3 sequence (P70536 1-388): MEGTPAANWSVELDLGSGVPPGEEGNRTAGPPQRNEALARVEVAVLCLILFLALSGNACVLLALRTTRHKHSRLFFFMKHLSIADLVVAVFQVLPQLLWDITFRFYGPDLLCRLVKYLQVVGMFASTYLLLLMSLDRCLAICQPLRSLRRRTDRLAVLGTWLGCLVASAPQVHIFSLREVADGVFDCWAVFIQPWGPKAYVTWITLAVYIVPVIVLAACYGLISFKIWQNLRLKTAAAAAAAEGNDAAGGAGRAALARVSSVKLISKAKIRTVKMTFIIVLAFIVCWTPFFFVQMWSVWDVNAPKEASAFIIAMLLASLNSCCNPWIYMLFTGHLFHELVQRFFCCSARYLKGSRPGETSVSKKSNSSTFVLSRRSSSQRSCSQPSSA
The test can be described thus: Oxytocin Receptor Binding. More on the design: species or system rat (Sprague-Dawley). The following applies: for IC50: [3H]oxytocin displacement. The protocol: Oxytocin Receptor Binding
Female Sprague-Dawley rats weighing approximately 200-250 g are injected intramuscularly (i.m.) with 0.3 mg/kg of body weight of diethylstilbestrol (DES). The rats are sacrificed 18 hours later under pentobarbital anesthesia. The uteri are dissected out, cleaned of fat and connective tissues and rinsed in 50 ml of normal saline. The tissue pooled from six rats is homogenized in 50 ml of […] Tris. HCl, containing 0.5 mM dithiothreitol and 1.0 mM EDTA, adjusted to pH 7.4, using a polytron at setting 6 with three passes of 10 sec each. The homogenate is passed through two (2) layers of cheesecloth and the filtrate centrifuged at 1000×g for 10 minutes. The clear supernatant is removed and recentrifuged at 165,000×g for 30 minutes. The resulting pellet containing the oxytocin receptors is resuspended in 50.0 mM Tris.HCl containing 5.0 mM MgCl2 at pH 7.4, to give a protein concentration of 2.5 mg/ml of tissue suspension. This preparation is used in subsequent binding assays with [^3 H]oxytocin.
Binding of 3,5-[^3 H]Oxytocin ([^3 H]OT) to its receptors is done in microtiter plates using [^3 H]OT, at various concentrations, in an assay buffer of 50.0 mM Tris.HCI, pH 7.4 and containing 5.0 mM MgCl2, and a mixture of protease inhibitors: BSA, 0.1 mg; aprotinin, 1.0 mg; 1,10-phenanthroline, 2.0 mg; […], 10.0 mg; and PMSF, 0.3 mg per 100 ml of buffer solution. Non-specific binding is determined in the presence of 1.0 uM unlabeled OT. The binding reaction is terminated after 60 minutes, at 22° C., by rapid filtration through glass fiber filters using a Brandel® cell harvester (Biomedical Research and Development Laboratories, Inc., Gaithersburg, Md.). Competition experiments are conducted at equilibrium using 1.0 nM [^3 H]OT and varying the concentration of the displacing agents. The concentrations of agent displacing 50% of [^3 H]OT at its sites (IC50) are calculated by a computer assisted LUNDON-2 program (LUNDON SOFTWARE INC., Ohio, USA).

T1 sequence (P30560 whole entry): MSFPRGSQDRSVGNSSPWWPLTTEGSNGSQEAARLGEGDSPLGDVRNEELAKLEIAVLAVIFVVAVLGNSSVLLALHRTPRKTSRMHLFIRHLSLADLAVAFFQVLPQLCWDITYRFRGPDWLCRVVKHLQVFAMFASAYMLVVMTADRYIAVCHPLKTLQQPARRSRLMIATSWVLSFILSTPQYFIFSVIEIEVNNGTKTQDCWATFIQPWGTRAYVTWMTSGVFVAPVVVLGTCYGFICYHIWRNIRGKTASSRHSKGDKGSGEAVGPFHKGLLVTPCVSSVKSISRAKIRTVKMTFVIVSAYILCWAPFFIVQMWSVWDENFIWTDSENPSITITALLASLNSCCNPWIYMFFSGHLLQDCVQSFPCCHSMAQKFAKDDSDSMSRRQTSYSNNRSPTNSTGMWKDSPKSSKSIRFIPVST
T2 sequence (Q00788 whole entry): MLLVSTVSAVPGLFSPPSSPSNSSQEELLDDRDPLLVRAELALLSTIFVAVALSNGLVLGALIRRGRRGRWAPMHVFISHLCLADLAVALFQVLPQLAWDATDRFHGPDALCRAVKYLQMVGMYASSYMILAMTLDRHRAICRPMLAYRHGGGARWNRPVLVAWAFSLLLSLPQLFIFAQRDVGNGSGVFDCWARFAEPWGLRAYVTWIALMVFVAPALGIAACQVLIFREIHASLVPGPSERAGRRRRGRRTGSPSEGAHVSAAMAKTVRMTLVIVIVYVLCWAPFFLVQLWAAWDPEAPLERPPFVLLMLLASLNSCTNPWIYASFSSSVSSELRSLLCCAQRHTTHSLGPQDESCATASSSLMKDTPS

On to `Cc1ccc(F)cc1C(=O)Nc1ccc(C(=O)N2Cc3ccccc3Oc3ccccc32)cn1` [Example 1, N-[5-(Dibenz[b,f][1,4]oxazepin-10(11H)-ylcarbonyl)-2-pyridinyl]-5-fluoro-2-methylbenzamide], for which the figures for the concentration for half-maximal inhibition (IC50) in test [1] (rat hepatic V1 receptors) and in test [2] (rat kidney medullary V2 receptors) were 240 nM and 54 nM, respectively. For the same compound, in test [3], the inhibition (in general, the drop in the measured response relative to a control, in per cent) at 1 µM came out at 12%.
Compound `O=C(Nc1ccc(C(=O)N2Cc3ccccc3Cc3ccccc32)cn1)c1ccccc1-c1ccccc1` [Example 12, N-[5-[(6,11-Dihydro-5H-dibenz[b,e]azepin-5-yl)carbonyl]-2-pyridinyl][1,1'-biphenyl]-2-carboxamide] yielded an inhibition at 1 µM in test [1] (2 h, rat hepatic V1) of 100%. The “V2 %” value in test [2] (rat kidney V2, "at μM" (concentration not given)) was found to be 90%. Further, in test [3], the IC50 – broadly, the concentration that inhibits the measured activity by half – stood at 610 nM and 10 µM produced 76% inhibition.
Take `O=C(c1ccc(-c2ccccc2)cc1)N1Cc2ccccc2Nc2ccccc21` [Example 25]: the inhibition at 1 µM is 100% in test [1] (2 h, rat hepatic V1) and 39% in test [2] (rat kidney V2, at 1 μM). Further, the IC50 in test [3] was determined as 113 nM. This compound also had an inhibition at 10 µM in test [3] of 94%.
As for `O=C(c1ccccc1)c1ccc(C(=O)N2Cc3ccccc3CCc3ccccc32)cc1` [Example 33, 5-(4-Benzoylbenzoyl)5,6,11,12-tetrahydrodibenz[b,f]azocine], the inhibition at 10 µM was determined as 10% in test [1] (2 h, rat hepatic V1, at 10 μM) and 16% in test [2] (rat kidney V2, at 10 μM). The inhibition at 1 µM in test [3] came to 37%.
